Test results as given in PubChem BioAssay (NCI).
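Step 1: Grow cells in 96-well plates. Step 2: Expose to compound for 48 hours at 5 concentrations. Step 3: Interpolate endpoints linearly; if unreached, use highest concentration. At the GI50, growth is halved. TGI marks complete inhibition of growth.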

Legend:
Test in all cases: inhibition of tumour cell growth, NCI panel, 48 h; in the data active = GI50 below about 0.43 µM; inactive = the rest
[1] = tested on: 786-0 renal
[2] = tested on: A498 renal
[3] = tested on: A549 NSCLC
[4] = tested on: ACHN renal
[5] = tested on: BT-549 breast
[6] = tested on: CAKI-1 renal
[7] = tested on: CCRF-CEM leukemia
[8] = tested on: COLO 205 colon
[9] = tested on: DU-145 prostate
[10] = tested on: HCC-2998 colon
[11] = tested on: HCT-116 colon
[12] = tested on: HCT-15 colon
[13] = tested on: HL-60(TB) leukemia
[14] = tested on: HOP-62 NSCLC
[15] = tested on: HOP-92 NSCLC
[16] = tested on: HS 578T breast
[17] = tested on: HT29 colon
[18] = tested on: IGROV1 ovarian
[19] = tested on: K-562 leukemia
[20] = tested on: KM12 colon
[21] = tested on: LOX IMVI melanoma
[22] = tested on: M14 melanoma
[23] = tested on: MALME-3M melanoma
[24] = tested on: MCF7 breast
[25] = tested on: MDA-MB-231 breast
[26] = tested on: MDA-MB-435
[27] = tested on: MOLT-4 leukemia
[28] = tested on: NCI-H226 lung
[29] = tested on: NCI-H23 lung
[30] = tested on: NCI-H460 lung
[31] = tested on: NCI-H522 lung
[32] = tested on: NCI/ADR-RES ovarian
[33] = tested on: OVCAR-3 ovarian
[34] = tested on: OVCAR-4 ovarian
[35] = tested on: OVCAR-5 ovarian
[36] = tested on: OVCAR-8 ovarian
[37] = tested on: PC-3 prostate
[38] = tested on: RPMI-8226 leukemia
[39] = tested on: RXF 393 renal
[40] = tested on: SF-268 CNS
[41] = tested on: SF-295 CNS
[42] = tested on: SF-539 CNS
[43] = tested on: SK-MEL-28 melanoma
[44] = tested on: SK-MEL-5 melanoma
[45] = tested on: SK-OV-3 ovarian
[46] = tested on: SN12C renal
[47] = tested on: SNB-19 CNS
[48] = tested on: SNB-75 CNS
[49] = tested on: SR leukemia
[50] = tested on: SW-620 colon
[51] = tested on: T-47D breast
[52] = tested on: TK-10 renal
[53] = tested on: U251 CNS
[54] = tested on: UACC-257 melanoma
[55] = tested on: UACC-62 melanoma
[56] = tested on: UO-31 renal

CCOC(=O)C1=CN(C)C=C(C(=O)OCC)C1c1cc(Br)c(OCC)c(OC)c1
> 100 µM: TGI [1] | TGI [3] | TGI [4] | TGI [5] | TGI [6] | TGI [7] | TGI [8] | TGI [9] | TGI [10] | TGI [11] | TGI [12] | TGI [13] | TGI [14] | TGI [15] | TGI [16] | TGI [17] | TGI [18] | TGI [19] | TGI [20] | TGI [21] | TGI [22] | TGI [23] | TGI [24] | TGI [25] | TGI [26] | TGI [27] | TGI [28] | TGI [29] | TGI [30] | TGI [31] | TGI [32] | TGI [33] | TGI [34] | TGI [35] | TGI [36] | TGI [37] | TGI [38] | TGI [39] | TGI [40] | TGI [41] | TGI [42] | TGI [43] | TGI [44] | TGI [45] | TGI [46] | TGI [47] | TGI [48] | TGI [49] | TGI [50] | TGI [51] | TGI [52] | TGI [53] | TGI [54] | TGI [55] | TGI [56]
94.9 µM: TGI [2]
inactive: GI50 [1] > 100 µM | GI50 [2] 4.99 µM | GI50 [3] 81.7 µM | GI50 [4] > 100 µM | GI50 [5] > 100 µM | GI50 [6] 53 µM | GI50 [7] > 100 µM | GI50 [8] 68.7 µM | GI50 [9] > 100 µM | GI50 [10] > 100 µM | GI50 [11] 25.9 µM | GI50 [12] > 100 µM | GI50 [13] > 100 µM | GI50 [14] > 100 µM | GI50 [15] 20.5 µM | GI50 [16] 32.6 µM | GI50 [17] 34.5 µM | GI50 [18] > 100 µM | GI50 [19] > 100 µM | GI50 [20] 35 µM | GI50 [21] > 100 µM | GI50 [22] > 100 µM | GI50 [23] > 100 µM | GI50 [24] 32 µM | GI50 [25] 45.4 µM | GI50 [26] > 100 µM | GI50 [27] > 100 µM | GI50 [28] > 100 µM | GI50 [29] > 100 µM | GI50 [30] 43.5 µM | GI50 [31] > 100 µM | GI50 [32] > 100 µM | GI50 [33] 48 µM | GI50 [34] 12.5 µM | GI50 [35] > 100 µM | GI50 [36] > 100 µM | GI50 [37] 8.29 µM | GI50 [38] 25.8 µM | GI50 [39] 8.74 µM | GI50 [40] > 100 µM | GI50 [41] 41.1 µM | GI50 [42] > 100 µM | GI50 [43] > 100 µM | GI50 [44] 49.2 µM | GI50 [45] > 100 µM | GI50 [46] > 100 µM | GI50 [47] > 100 µM | GI50 [48] 20.8 µM | GI50 [49] > 100 µM | GI50 [50] 67.2 µM | GI50 [51] 23.5 µM | GI50 [52] > 100 µM | GI50 [53] > 100 µM | GI50 [54] > 100 µM | GI50 [55] 69.4 µM | GI50 [56] 39.9 µM
